Measurements as given in patent US20100267561A1, “HERBICIDAL PYRIDAZINONE DERIVATIVES” (priority 2007, published 2010).

Experiments:
Experiment in all cases: Test B pre-/postemergence plant response
Assay type in all cases: in vivo
[1] = tested on: pigweed (Amaranthus retroflexus)
Summary of the method: (§1)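 Preemergence and postemergence (plants 2-18 cm, 1- to 4-leaf stage) applications used test chemicals in a non-phytotoxic solvent with surfactant. Plants were held in a greenhouse 13 to 15 days, then rated visually against controls on a 0-100 scale (0 no effect, 100 complete control).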

[2] = tested on: surinam grass (Brachiaria decumbens)
Summary of the method: as §1

[3] = tested on: common ragweed (Ambrosia elation)
Summary of the method: as §1

[4] = tested on: johnsongrass (Sorghum halepense)
Summary of the method: as §1

[5] = tested on: eastern black (E.B.) nightshade (Solanum ptycanthum); settings: Preemergence
Summary of the method: as §1

[6] = tested on: common (oilseed) sunflower (Helianthus annuus); settings: Preemergence
Summary of the method: as §1

[7] = tested on: Italian ryegrass (Lolium multiflorum)
Summary of the method: as §1

corn (Zea mays) = tested on: corn (Zea mays)
Summary of the method: as §1

kochia (Kochia scoparia) = tested on: kochia (Kochia scoparia)
Summary of the method: as §1

[8] = tested on: goosegrass (Eleusine indica)
Summary of the method: as §1

[9] = tested on: Russian thistle (Salsola iberica); settings: Preemergence
Summary of the method: as §1

[10] = tested on: giant foxtail (Setaria faberii)
Summary of the method: as §1

[11] = tested on: green foxtail (Setaria viridis)
Summary of the method: as §1

[12] = tested on: yellow nutsedge (Cyperus esculentus)
Summary of the method: as §1

[13] = Postemergence, 31 g ai/ha, scale 0 to 100, 0 no effect, 100 complete control
[14] = Postemergence, 62 g ai/ha, scale 0 to 100
[15] = Postemergence, 125 g ai/ha, scale 0 to 100
[16] = Postemergence, 250 g ai/ha, scale 0 to 100
[17] = Preemergence, 31 g ai/ha, 0 to 100 scale, 0 no effect, 100 complete control
[18] = Preemergence, 62 g ai/ha, scale 0 to 100
[19] = Preemergence, 125 g ai/ha, scale 0 to 100
[20] = Preemergence, 250 g ai/ha, scale 0 to 100
[21] = 31 g ai/ha, 0 to 100 scale, 0 no effect, 100 complete control

Cc1nn(C)c(=O)c(-n2nc(-c3ccc(Cl)cc3)cc2C)c1O [Compound 15]
Plant response rating, Pigweed [1, 13]: 0 | Plant response rating, Pigweed [1, 14]: 0 | Plant response rating, Pigweed [1, 15]: 0 | Plant response rating, Pigweed [1, 16]: 0 | Plant response rating, Pigweed [1, 17]: 0 | Plant response rating, Pigweed [1, 18]: 0 | Plant response rating, Pigweed [1, 19]: 0 | Plant response rating, Pigweed [1, 20]: 0 | Plant response rating, Surinam Grass [2, 13]: 100 | Plant response rating, Surinam Grass [2, 14]: 100 | Plant response rating, Surinam Grass [2, 15]: 100 | Plant response rating, Surinam Grass [2, 16]: 100 | Plant response rating, Surinam Grass [2, 17]: 100 | Plant response rating, Surinam Grass [2, 18]: 100 | Plant response rating, Surinam Grass [2, 19]: 100 | Plant response rating, Surinam Grass [2, 20]: 100 | Plant response rating, Ragweed [3, 13]: 0 | Plant response rating, Ragweed [3, 14]: 0 | Plant response rating, Ragweed [3, 15]: 0 | Plant response rating, Ragweed [3, 16]: 40 | Plant response rating, Ragweed [3, 17]: 0 | Plant response rating, Ragweed [3, 18]: 0 | Plant response rating, Ragweed [3, 19]: 0 | Plant response rating, Ragweed [3, 20]: 0 | Plant response rating, Johnsongrass [4, 13]: 70 | Plant response rating, Johnsongrass [4, 14]: 80 | Plant response rating, Johnsongrass [4, 15]: 100 | Plant response rating, Johnsongrass [4, 16]: 100 | Plant response rating, Johnsongrass [4, 17]: 70 | Plant response rating, Johnsongrass [4, 18]: 95 | Plant response rating, Johnsongrass [4, 19]: 98 | Plant response rating, Johnsongrass [4, 20]: 100 | Plant response rating, Nightshade, E. B. [5, 21]: 0 | Plant response rating, Nightshade, E. B. ([5]; 62 g ai/ha, scale 0 to 100): 0 | Plant response rating, Nightshade, E. B. ([5]; 125 g ai/ha, scale 0 to 100): 0 | Plant response rating, Nightshade, E. B. ([5]; 250 g ai/ha, scale 0 to 100): 0 | Plant response rating, Sunflower [6, 21]: 0 | Plant response rating, Sunflower ([6]; 62 g ai/ha, scale 0 to 100): 0 | Plant response rating, Sunflower ([6]; 250 g ai/ha, scale 0 to 100): 60 | Plant response rating, Ryegrass, Italian [7, 13]: 98 | Plant response rating, Ryegrass, Italian [7, 14]: 100 | Plant response rating, Ryegrass, Italian [7, 15]: 100 | Plant response rating, Ryegrass, Italian [7, 16]: 100 | Plant response rating, Ryegrass, Italian [7, 17]: 70 | Plant response rating, Ryegrass, Italian [7, 18]: 100 | Plant response rating, Ryegrass, Italian [7, 19]: 100 | Plant response rating, Ryegrass, Italian [7, 20]: 100 | Plant response rating, Corn (corn (Zea mays); [13]): 90 | Plant response rating, Corn (corn (Zea mays); [14]): 95 | Plant response rating, Corn (corn (Zea mays); [15]): 95 | Plant response rating, Corn (corn (Zea mays); [17]): 50 | Plant response rating, Corn (corn (Zea mays); [18]): 98 | Plant response rating, Corn (corn (Zea mays); [19]): 100 | Plant response rating, Corn (corn (Zea mays); [20]): 100 | Plant response rating, Kochia (kochia (Kochia scoparia); [13]): 0 | Plant response rating, Kochia (kochia (Kochia scoparia); [14]): 0 | Plant response rating, Kochia (kochia (Kochia scoparia); [15]): 0 | Plant response rating, Kochia (kochia (Kochia scoparia); [16]): 0 | Plant response rating, Kochia (kochia (Kochia scoparia); [18]): 0 | Plant response rating, Goosegrass [8, 13]: 45 | Plant response rating, Goosegrass [8, 14]: 60 | Plant response rating, Goosegrass [8, 15]: 90 | Plant response rating, Goosegrass [8, 16]: 100 | Plant response rating, Goosegrass [8, 17]: 0 | Plant response rating, Goosegrass [8, 18]: 90 | Plant response rating, Goosegrass [8, 19]: 90 | Plant response rating, Goosegrass [8, 20]: 100 | Plant response rating, Russian Thistle [9, 21]: 0 | Plant response rating, Russian Thistle ([9]; 250 g ai/ha, scale 0 to 100): 80 | Plant response rating, Foxtail, Giant [10, 13]: 95 | Plant response rating, Foxtail, Giant [10, 14]: 100 | Plant response rating, Foxtail, Giant [10, 15]: 100 | Plant response rating, Foxtail, Giant [10, 16]: 100 | Plant response rating, Foxtail, Giant [10, 17]: 90 | Plant response rating, Foxtail, Giant [10, 18]: 100 | Plant response rating, Foxtail, Giant [10, 19]: 100 | Plant response rating, Foxtail, Giant [10, 20]: 100 | Plant response rating, Foxtail, Green [11, 13]: 95 | Plant response rating, Foxtail, Green [11, 14]: 95 | Plant response rating, Foxtail, Green [11, 15]: 100 | Plant response rating, Foxtail, Green [11, 16]: 100 | Plant response rating, Foxtail, Green [11, 17]: 100 | Plant response rating, Foxtail, Green [11, 18]: 100 | Plant response rating, Foxtail, Green [11, 19]: 100 | Plant response rating, Foxtail, Green [11, 20]: 100 | Plant response rating, Nutsedge, Yellow [12, 14]: 0 | Plant response rating, Nutsedge, Yellow [12, 15]: 0 | Plant response rating, Nutsedge, Yellow [12, 16]: 0 | Plant response rating, Nutsedge, Yellow [12, 17]: 0 | Plant response rating, Nutsedge, Yellow [12, 18]: 0 | Plant response rating, Nutsedge, Yellow [12, 20]: 0
